How the values were obtained:
PKR WT = PKR WT (Homo sapiens, UniProt P30613); test: PKR enzyme assay (WT), LDH-coupled, absorbance 340 nm; assay type: biochemical; settings: wild type PKR enzyme activation
Experimental: (§1) PKR (WT or mutant) enzyme stock solution was diluted to prepare a 1.25× Reaction Mix (without ADP). 1 μL of test compound was first added to the wells followed by 40 μL of 1.25× Reaction Mix (without ADP) and incubated at room temperature (25° C.) for 60 min. The reaction was initiated with 10 μL ADP, bringing the final Reaction Mix to 1x, and the reaction progress was measured as changes in absorbance at 340 nm wavelength at room temperature.
(§2) Test compound preparation: Test compounds were prepared at 50× final concentration in DMSO. 1 to 3 dilutions were made for 11 points (for example 50 μL of 5000 μM compound was added to 100 μL 100% DMSO to yield a 1667 μM, 50 μL of this added to 100 μL DMSO to yield 556 μM, and so forth). The compounds were added to the assay as a 1 to 50 dilution (1 μL in 50 μL) to yield a top concentration of 100 μM, decreasing 3-fold for 11 points.
(§3) Reaction Mix: PKR (1.25-1000 ng/well, 0.025-20 μg/ml depending on the PKR mutant), ADP (0.05-2.3 mM depending on the PKR mutant), PEP (0.031-2 mM depending on the PKR mutant), NADH (180 μM), LDH (0.005 U/μL, Sigma #L3888), 1 mM DTT, 0.03% BSA in 1× Reaction Buffer
(§4) Reaction Buffer: 100 mM KCl, 50 mM Tris pH 7.5, 5 mM MgCl2.

PKR K410E = PKR K410E (Homo sapiens, UniProt P30613, K410E); test: PKR Mutant Assay (K410E), LDH-coupled, absorbance 340 nm; assay type: biochemical; settings: mutant PKR K410E enzyme activation
Experimental: as §1, §2, §3, §4

PK R510Q = PK R510Q (Homo sapiens, UniProt P30613, R510Q); test: PKR Mutant Assay (R510Q), LDH-coupled, absorbance 340 nm; assay type: biochemical; settings: mutant PKR R510Q enzyme activation
Experimental: as §1, §2, §3, §4

PKM2 WT = PKM2 WT (Homo sapiens, UniProt P14618); test: PKM2 Assay, LDH-coupled, absorbance 340 nm; assay type: biochemical; settings: wild type PKM2 enzyme activation
Experimental: PKM2 enzyme stock solution was diluted to prepare a 1.25× Reaction Mix (without ADP). 1 μL of test compound was first added to the wells followed by 40 μL of 1.25× Reaction Mix (without ADP) and incubated at room temperature (25° C.) for 60 min. The reaction was initiated with 10 μL ADP (0.4 mM final concentration), bringing the final Reaction Mix to 1x, and the reaction progress was measured as changes in absorbance at 340 nm wavelength at room temperature.
as §2
Reaction Mix: PKM2 (5 ng/well, 0.1 μg/ml), ADP (0.4 mM), PEP (0.11 mM), NADH (180 μM), LDH (0.005 U/μL, Sigma #L3888), 1 mM DTT, 0.03% BSA in 1×
as §4

RBCs = test: Cell Based ATP Assay in purified red blood cells (Cell-Titer-Glo); design: species or system human; settings: Homo sapiens, Erythrocyte; wild type PKR; ATP levels in RBCs, overnight at 37° C.
Experimental: Fresh blood drawn from healthy volunteers into K2EDTA tubes was collected. Whole blood was pelleted by spinning at 500 g for 10 minutes. The transfusion bag port was cut off Purecell leukocyte reduction neofilter (Fisher NC0267633) one (1) inch above filter. A 10 ml syringe barrel was attached to the remaining cut tubing attached to the neofilter. The plasma layer was removed from the pellet of the whole blood and the pellet was resuspended in 2× volume of phosphate buffered saline (PBS). 9 ml re-suspended blood cell pellet was transferred to a 10 ml syringe that was attached to the neofilter. The whole blood was allowed to gravity flow through filter until all fluid ran through upper tubing into a filter disc. The plunger was added to the syringe. The filter was inverted and air was plunged through the syringe filter system. A new 5 ml syringe was used to remove filtered RBCs from the bag by the syringe port. Purified RBCs were transferred to a 5 ml snap cap tube that had been incubated on ice. The 5 ml snap cap tube was spun at 500 g for 10 minutes at 15 C. Supernatant was aspirated and resuspended in AGAM (1×PBS, 1% glucose, 170 mg/L adenine, 5.25 g/L mannitol) at a density of 4×10^9 cells/mL.
For cell based ATP assays, the compound as described herein was prepared in 100% DMSO as a 10 mM stock. Serial dilutions (1:4) were performed in 96-well V-bottom storage plate and then added 1:100 to 96-well V-bottom plates containing AGAM. 10 μL/well of compound diluted in AGAM was added to black clear bottom assay plates. RBCs were diluted in AGAM media to a density of 1×10^7 cells/mL before added 90 μL/well to black clear bottom assay plates (final compound concentration at 0.1% DMSO concentration). Assay plates were sealed using aluminum foil seals and incubated overnight at 37° C. in a humidified chamber. ATP levels were read out using Cell-Titer-Glo (Promega).

Sequence of PKR K410E (P30613 whole entry K410E): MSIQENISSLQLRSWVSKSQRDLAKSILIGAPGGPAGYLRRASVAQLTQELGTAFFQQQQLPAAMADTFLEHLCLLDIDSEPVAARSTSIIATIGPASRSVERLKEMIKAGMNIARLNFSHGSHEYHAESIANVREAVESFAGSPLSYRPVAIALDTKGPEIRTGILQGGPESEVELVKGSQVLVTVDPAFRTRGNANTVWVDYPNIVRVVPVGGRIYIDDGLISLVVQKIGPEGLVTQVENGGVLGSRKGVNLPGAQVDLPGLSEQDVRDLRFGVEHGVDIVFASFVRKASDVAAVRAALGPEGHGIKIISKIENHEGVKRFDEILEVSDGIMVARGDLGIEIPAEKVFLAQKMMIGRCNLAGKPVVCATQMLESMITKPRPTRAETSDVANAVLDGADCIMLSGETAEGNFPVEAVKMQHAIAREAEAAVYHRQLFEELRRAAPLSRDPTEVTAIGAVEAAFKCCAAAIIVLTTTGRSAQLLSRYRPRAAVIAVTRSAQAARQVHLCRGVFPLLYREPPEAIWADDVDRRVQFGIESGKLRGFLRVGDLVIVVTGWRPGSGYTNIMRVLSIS
Sequence of PKR WT (P30613 whole entry): as the sequence (P30613 whole entry K410E) above, with E410K counted along it
Sequence of PKM2 WT (P14618 whole entry): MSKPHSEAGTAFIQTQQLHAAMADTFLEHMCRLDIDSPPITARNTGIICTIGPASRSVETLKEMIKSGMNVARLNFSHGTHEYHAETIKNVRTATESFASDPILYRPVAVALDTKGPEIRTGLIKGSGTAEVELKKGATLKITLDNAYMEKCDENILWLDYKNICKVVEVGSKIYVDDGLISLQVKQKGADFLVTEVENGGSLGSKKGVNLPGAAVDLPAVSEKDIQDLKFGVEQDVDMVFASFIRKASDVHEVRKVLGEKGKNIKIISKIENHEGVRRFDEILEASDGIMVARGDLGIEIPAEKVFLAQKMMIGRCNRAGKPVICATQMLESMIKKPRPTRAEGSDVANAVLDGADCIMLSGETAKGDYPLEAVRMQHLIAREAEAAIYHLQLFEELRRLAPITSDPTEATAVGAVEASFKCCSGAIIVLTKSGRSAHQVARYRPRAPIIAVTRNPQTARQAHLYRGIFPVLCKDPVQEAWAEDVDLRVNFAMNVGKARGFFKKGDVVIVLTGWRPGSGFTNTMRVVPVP
Sequence of PK R510Q (P30613 whole entry R510Q): as the sequence (P30613 whole entry K410E) above, with E410K, R510Q counted along it

Row | Structure (SMILES) | AC50 (PKR WT) [nM] | AC50 (PKR K410E) [nM] | AC50 (PK R510Q) [nM] | AC50 (PKM2 WT) [nM] | PKR WT AC50 (PKR WT) | PKR K410E AC50 (PKR K410E) | PK R510Q AC50 (PK R510Q) | AC50 (RBCs) [nM]
1 | COc1cccc(CN2Cc3c(n(C)c4cc(C)sc34)C2=O)c1 [Cpd 1] | > 800 | > 800 | > 800 | > 800 |  |  |  | 
2 | COc1cccc(Cc2ccc3c4sc(C)cc4n(C)c3c2)c1 [Cpd 2] |  |  |  | > 800 | No Fit | No Fit | No Fit | 
3 | COc1cccc(Cn2ncc3c4oc(C)nc4n(C)c3c2=O)c1 [Cpd 3] | > 800 | > 800 | > 800 | 301 to 800 |  |  |  | 
4 | COc1cccc(Cn2ncc3c4sc(Cc5ccccc5)cc4n(C)c3c2=O)c1 [Cpd 4] | < 300 | < 300 | < 300 | < 300 |  |  |  | 
5 | COc1cccc(Cn2ncc3c4n[nH]cc4n(C)c3c2=O)c1 [Cpd 29] | > 800 | > 800 | > 800 | > 800 |  |  |  | 
6 | COc1cccc(Cn2ncc3c4nn(C)cc4n(C)c3c2=O)c1 [Cpd 30] | > 800 | > 800 | > 800 | > 800 |  |  |  | 
7 | COc1cccc(Cn2ncc3c4c(Br)cccc4n(C)c3c2=O)c1 [Cpd 32] | > 800 | > 800 | > 800 | > 800 |  |  |  | 
8 | COc1cccc(Cn2ncc3c4cc(Cc5ccccc5)ccc4n(C)c3c2=O)c1 [Cpd 34] | > 800 | > 800 | > 800 | > 800 |  |  |  | 
9 | COc1cccc(Cn2ncc3c4cc(Br)ccc4n(C)c3c2=O)c1 [Cpd 36] | > 800 | > 800 | > 800 | 301 to 800 |  |  |  | 
10 | COC(=O)c1ccc2c(c1)c1cnn(Cc3cccc(OC)c3)c(=O)c1n2C [Cpd 37] | > 800 | > 800 | > 800 | > 800 |  |  |  | 
11 | CNC(=O)c1ccc2c(c1)c1cnn(Cc3cccc(OC)c3)c(=O)c1n2C [Cpd 38] |  |  |  | > 800 | No Fit | No Fit | No Fit | 
12 | C=Cc1ccc2c(c1)c1cnn(Cc3cccc(OC)c3)c(=O)c1n2C [Cpd 39] | > 800 | > 800 | > 800 | > 800 |  |  |  | 
13 | CNC(=O)c1ccc2c3cnn(Cc4cccc(OC)c4)c(=O)c3n(C)c2c1 [Cpd 41] | > 800 |  |  | < 300 |  | No Fit | No Fit | 
14 | C=Cc1ccc2c3cnn(Cc4cccc(OC)c4)c(=O)c3n(C)c2c1 [Cpd 42] | > 800 | > 800 | > 800 | > 800 |  |  |  | 
15 | CCc1ccc2c3cnn(Cc4cccc(OC)c4)c(=O)c3n(C)c2c1 [Cpd 43] | > 800 | > 800 | > 800 | > 800 |  |  |  | 
16 | COc1cccc(Cn2ncc3c4cc(CO)ccc4n(C)c3c2=O)c1 [Cpd 44] | > 800 | > 800 | > 800 | 301 to 800 |  |  |  | 
17 | COc1cccc(Cn2ncc3c4cc(C#N)ccc4n(C)c3c2=O)c1 [Cpd 45] | > 800 | > 800 | > 800 | < 300 |  |  |  | 
18 | COc1cccc(Cn2ncc3c4c(C)cccc4n(C)c3c2=O)c1 [Cpd 46] |  | > 800 |  | > 800 | No Fit |  | No Fit | 
19 | COc1cccc(Cn2ncc3c4cc(O)ccc4n(C)c3c2=O)c1 [Cpd 48] | > 800 | > 800 | > 800 | 301 to 800 |  |  |  | 
20 | Cn1cc(S(=O)(=O)c2ccc3c4cnn(Cc5cccc(C(N)=O)c5)c(=O)c4n(C)c3c2)cn1 [Cpd 56] | 301 to 800 | < 300 | < 300 |  |  |  |  | > 1000
21 | Cn1c2ccc(S(=O)(=O)c3ccccc3)cc2c2cnn(Cc3cccc(C(N)=O)c3)c(=O)c21 [Cpd 57] | 301 to 800 | > 800 | < 300 |  |  |  |  | > 1000
22 | Cn1ccc(Cn2ncc3c4ccc(Cc5cscn5)cc4n(C)c3c2=O)n1 [Cpd 58] | < 300 | < 300 | < 300 |  |  |  |  | ≤ 1000
23 | COc1cccc(Cn2ncc3c4cccc(Cc5ccccc5)c4n(C)c3c2=O)c1 [Cpd 59] | > 800 | > 800 |  | > 800 |  |  | No Fit | 
24 | COc1cccc(Cn2ncc3c4ccc(Cc5ccccc5)cc4n(C)c3c2=O)c1 [Cpd 60] | > 800 | > 800 | 301 to 800 | 301 to 800 |  |  |  | 
25 | COc1cccc(Cn2ncc3c4c(Cc5ccccc5)cccc4n(C)c3c2=O)c1 [Cpd 61] |  |  |  | > 800 | No Fit | No Fit | No Fit | 
26 | COc1cccc(Cn2ncc3c4cc(C(F)(F)F)ccc4n(C)c3c2=O)c1 [Cpd 63] | > 800 | > 800 | > 800 | > 800 |  |  |  | 
27 | COc1cccc(Cn2ncc3c4ncccc4n(C)c3c2=O)c1 [Cpd 65] | > 800 | > 800 | > 800 | > 800 |  |  |  | 
28 | Cn1ccc(Cn2ncc3c4cc(Cc5cscn5)ncc4n(C)c3c2=O)n1 [Cpd 67] | < 300 | < 300 | < 300 |  |  |  |  | ≤ 1000
29 | COc1cccc(Cn2ncc3c(c(Br)n4cc(C)sc34)c2=O)c1 [Cpd 68] | < 300 | < 300 | < 300 |  |  |  |  | > 1000
